Assay results taken from ChEMBL document CHEMBL2073788, “Troglitazone-induced intrahepatic cholestasis by an interference with the hepatobiliary export of bile acids in male and female rats. Correlation with the gender difference in troglitazone sulfate formation and the inhibition of the canalicular bile salt export pump (Bsep) by troglitazone and …” (Toxicology, 2001).
Counter-ions that a name gives are not always drawn.

Experiments:
Bile salt export pump [1] = target: T1, Bile salt export pump (Rattus norvegicus, UniProt O70127); assay: TP_TRANSPORTER: inhibition of Taurocholate uptake (Taurocholate: 1 uM) in liver canalicular membrane vesicle from male rat; type: functional, cell membranes
T1 sequence (O70127 whole entry): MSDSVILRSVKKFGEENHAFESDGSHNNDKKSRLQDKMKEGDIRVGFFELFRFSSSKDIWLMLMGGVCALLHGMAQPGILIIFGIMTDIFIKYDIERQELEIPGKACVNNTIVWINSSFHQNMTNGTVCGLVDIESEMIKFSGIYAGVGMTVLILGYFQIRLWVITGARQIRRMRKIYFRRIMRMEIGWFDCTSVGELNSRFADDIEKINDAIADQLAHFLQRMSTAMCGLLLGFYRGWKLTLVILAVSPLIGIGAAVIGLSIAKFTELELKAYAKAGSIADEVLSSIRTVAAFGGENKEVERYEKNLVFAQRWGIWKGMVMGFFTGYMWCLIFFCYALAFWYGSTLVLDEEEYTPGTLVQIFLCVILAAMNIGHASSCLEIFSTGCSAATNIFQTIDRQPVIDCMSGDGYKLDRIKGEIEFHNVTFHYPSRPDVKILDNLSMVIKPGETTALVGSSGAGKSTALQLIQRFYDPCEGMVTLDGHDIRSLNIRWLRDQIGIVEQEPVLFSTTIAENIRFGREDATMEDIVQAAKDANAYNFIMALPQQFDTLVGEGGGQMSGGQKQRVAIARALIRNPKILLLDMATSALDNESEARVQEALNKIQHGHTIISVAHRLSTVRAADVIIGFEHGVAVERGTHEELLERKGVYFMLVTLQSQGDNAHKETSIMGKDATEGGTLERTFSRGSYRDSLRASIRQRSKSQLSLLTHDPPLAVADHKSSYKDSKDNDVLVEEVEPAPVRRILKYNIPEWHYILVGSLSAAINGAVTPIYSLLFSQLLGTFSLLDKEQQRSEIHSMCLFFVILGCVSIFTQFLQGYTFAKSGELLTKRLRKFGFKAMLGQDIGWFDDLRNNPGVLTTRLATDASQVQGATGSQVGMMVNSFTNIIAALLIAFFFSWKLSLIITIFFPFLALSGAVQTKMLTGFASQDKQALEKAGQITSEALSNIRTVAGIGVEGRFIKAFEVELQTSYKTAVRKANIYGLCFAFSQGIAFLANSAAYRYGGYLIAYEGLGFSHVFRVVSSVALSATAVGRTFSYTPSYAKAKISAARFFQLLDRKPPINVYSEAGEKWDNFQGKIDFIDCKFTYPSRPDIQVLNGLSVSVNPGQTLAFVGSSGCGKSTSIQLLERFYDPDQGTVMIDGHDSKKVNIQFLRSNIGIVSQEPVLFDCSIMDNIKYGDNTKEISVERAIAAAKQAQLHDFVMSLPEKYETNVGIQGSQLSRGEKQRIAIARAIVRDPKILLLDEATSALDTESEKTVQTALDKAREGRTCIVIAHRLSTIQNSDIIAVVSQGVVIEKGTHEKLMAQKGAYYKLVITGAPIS

Bile salt export pump [2] = target: T1, Bile salt export pump; assay: TP_TRANSPORTER: inhibition of Taurocholate uptake (Taurocholate: 1 uM) in liver canalicular membrane vesicle from female rat; type: functional, cell membranes

| IC50 (Bile salt export pump [1]) [µM] | IC50 (Bile salt export pump [2]) [µM] | Compound |
| --- | --- | --- |
| 8.6 | 15.7 | COc1ccc(Cl)cc1C(=O)NCCc1ccc(S(=O)(=O)NC(=O)NC2CCCCC2)cc1 [GLYBURIDE] |
| 0.4 | 0.6 | Cc1c(C)c2c(c(C)c1OS(=O)(=O)O)CCC(C)(COc1ccc(CC3SC(=O)NC3=O)cc1)O2 (stereo not given) [TROGLITAZONE SULFATE] |
| – | 3.9 | Cc1c(C)c2c(c(C)c1O)CCC(C)(COc1ccc(CC3SC(=O)NC3=O)cc1)O2 (stereo not given) [TROGLITAZONE] |
